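Briefly, cells in 96-well plates were exposed to five compound concentrations for 48 h, and endpoints were estimated by linear interpolation. At the GI50, growth is halved. TGI denotes the concentration required for complete inhibition of growth.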
Assays:
Experiment in all cases: growth of human tumour cells (NCI), 48 h
HS 578T breast = tested on: HS 578T breast
SF-268 CNS = tested on: SF-268 CNS
SR leukemia = tested on: SR leukemia
T-47D breast = tested on: T-47D breast
NCI-H23 lung = tested on: NCI-H23 lung
CCRF-CEM leukemia = tested on: CCRF-CEM leukemia
HCT-116 colon = tested on: HCT-116 colon
A498 renal = tested on: A498 renal
RPMI-8226 leukemia = tested on: RPMI-8226 leukemia
SW-620 colon = tested on: SW-620 colon

## Cc1nc2ccc(NC(=O)CCNC(=O)CCCc3ccc(CC(C(=O)O)C(=O)O)cc3)cc2s1
HS 578T breast
  GI50: > 100 µM
  TGI: > 100 µM
SF-268 CNS
  GI50: > 100 µM
  TGI: > 100 µM
SR leukemia
  GI50: > 100 µM
  TGI: > 100 µM
T-47D breast
  GI50: > 100 µM
  TGI: > 100 µM
NCI-H23 lung
  GI50: > 100 µM
  TGI: > 100 µM
CCRF-CEM leukemia
  GI50: > 100 µM
  TGI: > 100 µM
HCT-116 colon
  GI50: > 100 µM
  TGI: > 100 µM
A498 renal
  GI50: > 100 µM
  TGI: > 100 µM
RPMI-8226 leukemia
  GI50: > 100 µM
  TGI: > 100 µM
SW-620 colon
  GI50: > 100 µM
  TGI: > 100 µM

## Cn1cc(-c2ccc3nnc(Sc4ccc5ncccc5c4)n3n2)cn1
HS 578T breast
  GI50: 10.4 µM
  TGI: > 72.1 µM
SF-268 CNS
  GI50: 60.2 µM
  TGI: > 100 µM
SR leukemia
  GI50: 68.1 µM
  TGI: > 100 µM
T-47D breast
  GI50: 99.3 µM
  TGI: > 100 µM
NCI-H23 lung
  GI50: 56 µM
  TGI: > 100 µM
CCRF-CEM leukemia
  GI50: 51.6 µM
  TGI: > 100 µM
HCT-116 colon
  GI50: 53 µM
  TGI: > 100 µM
A498 renal
  GI50: > 23 µM
  TGI: > 93.1 µM
RPMI-8226 leukemia
  GI50: 41.2 µM
  TGI: > 100 µM
SW-620 colon
  GI50: > 100 µM
  TGI: > 100 µM

## Cc1nc(Nc2cccnc2)sc1C(=O)/C=C/c1ccc(Cl)cc1
HS 578T breast
  GI50: 4.11 µM
  TGI: > 100 µM
SF-268 CNS
  GI50: 4.34 µM
  TGI: > 100 µM
SR leukemia
  GI50: 2.3 µM
  TGI: > 100 µM
T-47D breast
  GI50: 2.57 µM
  TGI: 29.4 µM
NCI-H23 lung
  GI50: 3.43 µM
  TGI: 40.8 µM
CCRF-CEM leukemia
  GI50: 3.31 µM
  TGI: > 100 µM
HCT-116 colon
  GI50: 1.85 µM
  TGI: 5.03 µM
A498 renal
  GI50: 49.5 µM
  TGI: > 100 µM
RPMI-8226 leukemia
  GI50: 2.5 µM
  TGI: 9.03 µM
SW-620 colon
  GI50: 2.08 µM
  TGI: 4.75 µM

## COC(=O)C1C(O)C(C)C(O)C(C)C=C(C)C2=C3C(=C(C)C(=O)c4c(O)c(c(C)c(OC(C)=O)c43)NC(=O)C(C)=C/C=C\C(C)C(O)C(C)C1O)OCO2 (stereo not given)
HS 578T breast
  TGI: > 100 µM
SF-268 CNS
  TGI: 44.9 µM
SR leukemia
  TGI: 47.6 µM
T-47D breast
  TGI: > 100 µM
NCI-H23 lung
  TGI: 63 µM
CCRF-CEM leukemia
  TGI: 67 µM
HCT-116 colon
  TGI: > 100 µM
A498 renal
  TGI: 99.4 µM
RPMI-8226 leukemia
  TGI: 55.3 µM
SW-620 colon
  TGI: 56.4 µM

## COc1cc2c(cc1O)CC1c3c(cc(O)c(OC)c3-2)CCN1C (stereo not given)
HS 578T breast
  TGI: > 100 µM
SF-268 CNS
  TGI: > 100 µM
SR leukemia
  TGI: > 100 µM
T-47D breast
  TGI: > 100 µM
NCI-H23 lung
  TGI: > 100 µM
CCRF-CEM leukemia
  TGI: > 100 µM
HCT-116 colon
  TGI: > 100 µM
A498 renal
  TGI: > 100 µM
RPMI-8226 leukemia
  TGI: > 100 µM
SW-620 colon
  TGI: > 100 µM

## O=C(Nn1c(-c2ccccc2)nc2ccccc2c1=O)c1ccccc1O
HS 578T breast
  TGI: > 100 µM
SF-268 CNS
  TGI: > 100 µM
SR leukemia
  TGI: > 100 µM
T-47D breast
  TGI: > 100 µM
NCI-H23 lung
  TGI: > 100 µM
CCRF-CEM leukemia
  TGI: > 100 µM
HCT-116 colon
  TGI: > 100 µM
A498 renal
  TGI: > 100 µM
RPMI-8226 leukemia
  TGI: > 100 µM
SW-620 colon
  TGI: > 100 µM

## O=c1cc(N/N=C/c2ccc(F)cc2)c2cc(Cl)ccc2[nH]1
HS 578T breast
  GI50: 25.3 µM
  TGI: > 100 µM
SF-268 CNS
  GI50: 33.6 µM
  TGI: > 100 µM
SR leukemia
  GI50: 24.5 µM
  TGI: 85.6 µM
T-47D breast
  GI50: 18.6 µM
  TGI: > 100 µM
NCI-H23 lung
  GI50: 19.5 µM
  TGI: 76.1 µM
CCRF-CEM leukemia
  GI50: 12 µM
  TGI: > 100 µM
HCT-116 colon
  GI50: 17.4 µM
  TGI: > 100 µM
A498 renal
  GI50: 14.8 µM
  TGI: 92.7 µM
RPMI-8226 leukemia
  GI50: 17 µM
  TGI: > 100 µM
SW-620 colon
  GI50: 26.8 µM
  TGI: > 100 µM

## COc1ccc(-c2nc(-c3nc4ccc(F)cc4[nH]3)c3ccccn23)cc1
HS 578T breast
  GI50: 8.54 µM
  TGI: > 100 µM
SF-268 CNS
  GI50: 7.2 µM
  TGI: 57.8 µM
SR leukemia
  GI50: 6.63 µM
  TGI: > 100 µM
T-47D breast
  GI50: 3.55 µM
  TGI: 20.8 µM
NCI-H23 lung
  GI50: 18.7 µM
  TGI: > 100 µM
CCRF-CEM leukemia
  GI50: 4.39 µM
  TGI: > 100 µM
HCT-116 colon
  GI50: 3.61 µM
  TGI: 17.8 µM
A498 renal
  GI50: 3.83 µM
  TGI: 31.8 µM
RPMI-8226 leukemia
  GI50: 2.86 µM
  TGI: > 100 µM
SW-620 colon
  GI50: 22.4 µM
  TGI: > 100 µM

## Cc1cc(O)c(C2=NN(c3ccc(S(N)(=O)=O)cc3)C(c3ccc(Cl)cc3)C2)c(C)c1Cl (stereo not given)
HS 578T breast
  GI50: 3.45 µM
  TGI: 20 µM
SF-268 CNS
  GI50: 5.76 µM
  TGI: 19.4 µM
SR leukemia
  GI50: 1.28 µM
  TGI: 5.02 µM
T-47D breast
  GI50: 2.93 µM
  TGI: 14.9 µM
NCI-H23 lung
  GI50: 5.82 µM
  TGI: 19.9 µM
CCRF-CEM leukemia
  GI50: 3.64 µM
  TGI: 13.5 µM
HCT-116 colon
  GI50: 3.47 µM
  TGI: 12.9 µM
A498 renal
  GI50: 6.97 µM
  TGI: 19.3 µM
RPMI-8226 leukemia
  GI50: 3.99 µM
  TGI: 17.8 µM
SW-620 colon
  GI50: 3.72 µM
  TGI: 15.2 µM
